In US10865193B2, “Pyridone derivatives for the treatment of viral infections and further diseases” (JANSSEN SCIENCES IRELAND UNLIMITED COMPANY, priority 2013, dated 2020):

Assays:
Format in all cases: cell-based
human TLR7 = target: T1, human TLR7 (Homo sapiens, UniProt Q9NYK1); assay: TLR7 cellular reporter assay (HEK293, NFκB-luc); conditions: HEK293 transiently transfected with TLR7 and NFκB-luc; 6 hours incubation; lowest effective concentration
T1 construct: expressed in transfected cells; host or cells: HEK293 (transient transfection)
T1 sequence (Q9NYK1 27-1049): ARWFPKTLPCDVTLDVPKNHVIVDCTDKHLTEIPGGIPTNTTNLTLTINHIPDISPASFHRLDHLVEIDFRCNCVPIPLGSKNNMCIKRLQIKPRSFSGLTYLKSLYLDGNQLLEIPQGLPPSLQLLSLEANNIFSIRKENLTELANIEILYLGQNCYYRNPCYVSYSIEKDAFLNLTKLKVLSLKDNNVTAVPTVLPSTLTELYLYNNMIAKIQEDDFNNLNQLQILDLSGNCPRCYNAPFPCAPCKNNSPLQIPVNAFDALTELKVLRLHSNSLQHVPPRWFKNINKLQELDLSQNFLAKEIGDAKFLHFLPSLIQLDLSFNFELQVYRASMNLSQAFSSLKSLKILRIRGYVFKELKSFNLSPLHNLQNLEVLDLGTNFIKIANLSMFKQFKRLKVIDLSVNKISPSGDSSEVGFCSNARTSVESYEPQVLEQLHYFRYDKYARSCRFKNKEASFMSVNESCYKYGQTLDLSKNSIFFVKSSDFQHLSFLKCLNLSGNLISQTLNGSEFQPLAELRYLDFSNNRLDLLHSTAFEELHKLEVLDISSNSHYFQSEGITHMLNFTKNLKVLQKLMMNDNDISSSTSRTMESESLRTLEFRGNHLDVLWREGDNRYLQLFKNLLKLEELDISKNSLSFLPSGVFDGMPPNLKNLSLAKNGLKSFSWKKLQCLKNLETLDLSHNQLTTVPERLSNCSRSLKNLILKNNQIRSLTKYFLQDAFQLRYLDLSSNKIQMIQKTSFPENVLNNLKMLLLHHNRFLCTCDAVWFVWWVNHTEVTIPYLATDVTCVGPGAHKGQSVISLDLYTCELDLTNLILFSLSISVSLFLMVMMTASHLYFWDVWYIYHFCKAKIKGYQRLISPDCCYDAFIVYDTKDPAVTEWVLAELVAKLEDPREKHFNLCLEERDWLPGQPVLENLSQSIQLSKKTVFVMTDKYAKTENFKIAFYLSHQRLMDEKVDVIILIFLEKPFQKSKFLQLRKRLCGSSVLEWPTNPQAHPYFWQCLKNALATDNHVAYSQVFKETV
Description: (§1) The ability of compounds to activate human TLR7 and/or TLR8 was assessed in a cellular reporter assay using HEK293 cells transiently transfected with a TLR7 or TLR8 expression vector and NFκB-luc reporter construct.
(§2) Briefly, HEK293 cells were grown in culture medium (DMEM supplemented with 10% FCS and 2 mM Glutamine). For transfection of cells in 15 cm dishes, cells were detached with Trypsin-EDTA, transfected with a mix of CMV-TLR7 or TLR8 plasmid (1700 ng), NFκB-luc plasmid (850 ng) and a transfection reagent and incubated for 48 h at 37° C. in a humidified 5% CO2 atmosphere. Transfected cells were then washed in PBS, detached with Trypsin-EDTA and resuspended in medium to a density of 1.25×10^5 cells/mL. Forty microliters of cells were then dispensed into each well in 384-well plates, where 200 nL of compound in 100% DMSO was already present. Following 6 hours incubation at 37° C., 5% CO2, the luciferase activity was determined by adding 15 μL of Steady Lite Plus substrate (Perkin Elmer) to each well and readout performed on a ViewLux ultraHTS microplate imager (Perkin Elmer). Dose response curves were generated from measurements performed in quadruplicates. Lowest effective concentrations (LEC) values, defined as the concentration that induces an effect which is at least two fold above the standard deviation of the assay, were determined for each compound.

human TLR8 = target: T2, human TLR8 (Homo sapiens, UniProt Q9NR97); assay: TLR8 cellular reporter assay (HEK293, NFκB-luc); conditions: HEK293 transiently transfected with TLR8 and NFκB-luc; 6 hours incubation; lowest effective concentration
T2 construct: expressed in transfected cells; host or cells: HEK293 (transient transfection)
T2 sequence (Q9NR97 27-1041): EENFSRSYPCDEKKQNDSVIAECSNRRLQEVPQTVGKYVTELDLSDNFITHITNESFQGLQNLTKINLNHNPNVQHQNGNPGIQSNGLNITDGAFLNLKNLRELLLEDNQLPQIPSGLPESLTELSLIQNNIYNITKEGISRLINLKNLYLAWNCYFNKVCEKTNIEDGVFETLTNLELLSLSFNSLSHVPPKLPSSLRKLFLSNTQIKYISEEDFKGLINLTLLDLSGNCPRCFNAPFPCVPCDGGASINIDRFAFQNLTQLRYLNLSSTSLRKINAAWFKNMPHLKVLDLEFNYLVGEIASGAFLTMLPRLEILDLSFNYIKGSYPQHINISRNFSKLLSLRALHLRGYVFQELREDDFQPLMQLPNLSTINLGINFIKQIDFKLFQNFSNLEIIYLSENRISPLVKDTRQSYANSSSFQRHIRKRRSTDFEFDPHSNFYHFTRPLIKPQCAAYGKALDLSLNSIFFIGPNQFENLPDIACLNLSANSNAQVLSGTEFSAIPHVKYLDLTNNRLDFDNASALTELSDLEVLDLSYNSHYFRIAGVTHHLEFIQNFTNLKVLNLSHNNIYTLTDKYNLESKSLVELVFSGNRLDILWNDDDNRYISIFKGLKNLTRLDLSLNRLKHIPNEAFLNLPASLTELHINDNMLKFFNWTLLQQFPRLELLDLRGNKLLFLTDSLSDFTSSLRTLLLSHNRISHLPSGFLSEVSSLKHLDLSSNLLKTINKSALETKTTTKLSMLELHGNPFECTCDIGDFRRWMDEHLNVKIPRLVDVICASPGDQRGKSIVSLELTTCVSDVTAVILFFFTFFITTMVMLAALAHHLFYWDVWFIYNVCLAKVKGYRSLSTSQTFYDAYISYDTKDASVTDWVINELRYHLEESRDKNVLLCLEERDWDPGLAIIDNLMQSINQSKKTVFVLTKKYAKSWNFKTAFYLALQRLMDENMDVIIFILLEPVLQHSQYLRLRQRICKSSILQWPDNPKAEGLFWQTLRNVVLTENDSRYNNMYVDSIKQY
Description: as §1, §2

[1] = tested on: interferon-stimulated responsive elements (ISRE); assay: Activation of ISRE promoter elements by conditioned media from PBMC (HEK-ISREluc); conditions: Homo sapiens; PBMC overnight incubation, supernatant on HEK-ISREluc cells 24 hours; lowest effective concentration; read-out: HEK-ISRE luc (LEC)
Description: The potential of compounds to induce IFN-I was also evaluated by measuring the activation of interferon-stimulated responsive elements (ISRE) by conditioned media from PBMC. The ISRE element of sequence GAAACTGAAACT (SEQ ID NO: 1) is highly responsive to the STAT1-STAT2-1RF9 transcription factor, activated upon binding of IFN-I to their receptor IFNAR (Clontech, PT3372-5W). The plasmid pISRE-Luc from Clontech (ref. 631913) contains 5 copies of this ISRE element, followed by the firefly luciferase ORF. A HEK293 cell line stably transfected with pISRE-Luc (HEK-ISREluc) was established to profile the conditioned PBMC cell culture media.
Briefly, PBMCs were prepared from buffy coats of at least two donors using a standard Ficoll centrifugation protocol. Isolated PBMCs were resuspended in RPMI medium supplemented with 10% human AB serum and 2×10^5 cells/well were dispensed into 384-well plates containing compounds (70 μL total volume). After overnight incubation, 10 μL of supernatant was transferred to 384-well plates containing 5×10^3 HEK-ISREluc cells/well in 30 μL (plated the day before). Following 24 hours of incubation, activation of the ISRE elements was measured by assaying luciferase activity using 40 μL/well Steady Lite Plus substrate (Perkin Elmer) and measured with ViewLux ultraHTS microplate imager (Perkin Elmer). The stimulating activity of each compound on the HEK-ISREluc cells was reported as LEC value, defined as the compound concentration applied to the PBMCs resulting in a luciferase activity at least two fold above the standard deviation of the assay. The LEC in turn indicates the degree of ISRE activation on transfer of a defined amount of PBMC culture medium. Recombinant interferon α-2a (Roferon-A) was used as a standard control compound.

| SMILES | Human TLR 7 (LEC) (human TLR7) | Human TLR 8 (LEC) (human TLR8) | minimal effective concentration [1] |
| --- | --- | --- | --- |
| CCCCNc1nc(N)ncc1Cn1ccccc1=O [Compound 1] | 1.8 µM | 7.3 µM | 0.7 µM |
| CCCCNc1nc(N)ncc1Cn1c(C)cccc1=O [Compound 2] | 1.1 µM | 2.1 µM | 0.8 µM |
| CCCCNc1nc(N)ncc1Cn1cc(C)ccc1=O [Compound 3] | 0.8 µM | 10.3 µM | 0.3 µM |
| CCCCNc1nc(N)ncc1Cn1ccc(C)cc1=O [Compound 4] | 0.5 µM | 2.2 µM | 0.5 µM |
| CCCCNc1nc(N)ncc1Cn1c(=O)ccc2ccccc21 [Compound 5] | 0.9 µM | 2.7 µM | 0.04 µM |
| CCCCNc1nc(N)ncc1Cn1cccc(F)c1=O [Compound 6] | 1.2 µM | 6.9 µM | 0.5 µM |
| CCCCNc1nc(N)ncc1Cn1ccc(C(F)(F)F)cc1=O [Compound 7] | 0.5 µM | 6.8 µM | 0.5 µM |
| CCCCCNc1nc(N)ncc1Cn1ccccc1=O [Compound 8] | 1.5 µM | >25 µM | 0.6 µM |
| CCCCCCNc1nc(N)ncc1Cn1ccccc1=O [Compound 9] | 7.3 µM | >25 µM | 3 µM |
| CCCCC(C)Nc1nc(N)ncc1Cn1ccccc1=O (stereo not drawn) [Compound 10] | 1.0 µM | 16 µM | 0.3 µM |
| CCCC(C)Nc1nc(N)ncc1Cn1ccccc1=O (stereo not drawn) [Compound 11] | 1.3 µM | 14.6 µM | 0.3 µM |
